From ChEMBL document CHEMBL5375973, “Design and Synthesis of Novel Near-Infrared Fluorescence Probes Based on an Open Conformation of a Cytochrome P450 1B1 Complex for Molecular Imaging of Colorectal Tumors” (J Med Chem, 2023)

Key:
HFF-1 = test: Cytotoxicity against human HFF-1 cells at 1 to 10 uM incubated for 24 hrs by MTT assay; format: toxicity, cell-based; settings: hff-1, 24 h, dose 1-10 µM
[1] = Stability of the compound assessed as drug degradation observed after 24 hrs by HPLC analysis; format: physicochemical
HCT-15 = test: Cytotoxicity against human HCT-15 cells assessed as cell viability at 10 uM incubated for 24 hrs by MTT assay; format: functional; settings: read-out: Activity
Cytochrome P450 1B1 [2] = target: T1, Cytochrome P450 1B1 (Homo sapiens, UniProt Q16678); test: Binding affinity to CYP1B1 in human HCT-15 cells assessed as apparent dissociation constant incubated for 1 hr by flow cytometry analysis; format: ADME, cell-based; settings: read-out: Kd(app)
T1 sequence (Q16678 whole entry): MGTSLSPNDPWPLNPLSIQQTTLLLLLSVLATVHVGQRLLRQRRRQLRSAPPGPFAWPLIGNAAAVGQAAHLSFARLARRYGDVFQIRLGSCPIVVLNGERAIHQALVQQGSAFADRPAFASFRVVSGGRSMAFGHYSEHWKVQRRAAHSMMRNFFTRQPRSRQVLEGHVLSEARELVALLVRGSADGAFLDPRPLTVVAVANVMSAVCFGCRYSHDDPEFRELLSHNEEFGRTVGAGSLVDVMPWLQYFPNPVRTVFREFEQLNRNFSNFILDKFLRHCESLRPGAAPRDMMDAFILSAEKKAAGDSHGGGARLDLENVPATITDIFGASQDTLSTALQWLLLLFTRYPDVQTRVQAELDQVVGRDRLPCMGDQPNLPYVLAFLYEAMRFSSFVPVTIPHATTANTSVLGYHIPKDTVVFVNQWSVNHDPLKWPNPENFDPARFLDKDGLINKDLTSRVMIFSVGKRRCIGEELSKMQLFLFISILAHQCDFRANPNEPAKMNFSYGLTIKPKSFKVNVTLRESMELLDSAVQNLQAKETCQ

Cytochrome P450 1B1 [3] = target: T1, Cytochrome P450 1B1; test: Inhibition of recombinant CYP1B1 (unknown origin) using 7-ethoxyresorufin as substrate preincubated for 5 mins followed by NADPH addition incubated for 35 mins by EROD assay; format: ADME
Cytochrome P450 1A2 = target: T2, Cytochrome P450 1A2 (Homo sapiens, UniProt P05177); test: Inhibition of recombinant CYP1A2 (unknown origin) using 7-ethoxyresorufin as substrate preincubated for 5 mins followed by NADPH addition incubated for 50 mins by EROD assay; format: ADME
T2 sequence (P05177 whole entry): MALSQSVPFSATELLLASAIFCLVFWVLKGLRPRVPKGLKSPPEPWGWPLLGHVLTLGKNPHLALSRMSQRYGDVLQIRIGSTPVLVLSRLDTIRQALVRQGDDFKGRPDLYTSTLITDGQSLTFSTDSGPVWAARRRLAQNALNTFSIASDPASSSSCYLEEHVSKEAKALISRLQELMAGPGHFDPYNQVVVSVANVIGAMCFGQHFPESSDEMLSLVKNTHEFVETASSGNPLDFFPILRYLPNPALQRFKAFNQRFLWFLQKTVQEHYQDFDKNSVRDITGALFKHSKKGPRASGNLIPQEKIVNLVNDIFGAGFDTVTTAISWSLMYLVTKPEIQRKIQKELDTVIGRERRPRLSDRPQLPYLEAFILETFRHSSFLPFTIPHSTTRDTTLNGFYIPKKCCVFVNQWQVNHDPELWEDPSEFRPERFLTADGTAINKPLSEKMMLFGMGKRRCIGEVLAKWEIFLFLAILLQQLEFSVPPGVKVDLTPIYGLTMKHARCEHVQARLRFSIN

Cytochrome P450 1A1 = target: T3, Cytochrome P450 1A1 (Homo sapiens, UniProt P04798); test: Inhibition of recombinant CYP1A1 (unknown origin) using 7-ethoxyresorufin as substrate preincubated for 5 mins followed by NADPH addition incubated for 15 mins by EROD assay; format: ADME
T3 sequence (P04798 whole entry): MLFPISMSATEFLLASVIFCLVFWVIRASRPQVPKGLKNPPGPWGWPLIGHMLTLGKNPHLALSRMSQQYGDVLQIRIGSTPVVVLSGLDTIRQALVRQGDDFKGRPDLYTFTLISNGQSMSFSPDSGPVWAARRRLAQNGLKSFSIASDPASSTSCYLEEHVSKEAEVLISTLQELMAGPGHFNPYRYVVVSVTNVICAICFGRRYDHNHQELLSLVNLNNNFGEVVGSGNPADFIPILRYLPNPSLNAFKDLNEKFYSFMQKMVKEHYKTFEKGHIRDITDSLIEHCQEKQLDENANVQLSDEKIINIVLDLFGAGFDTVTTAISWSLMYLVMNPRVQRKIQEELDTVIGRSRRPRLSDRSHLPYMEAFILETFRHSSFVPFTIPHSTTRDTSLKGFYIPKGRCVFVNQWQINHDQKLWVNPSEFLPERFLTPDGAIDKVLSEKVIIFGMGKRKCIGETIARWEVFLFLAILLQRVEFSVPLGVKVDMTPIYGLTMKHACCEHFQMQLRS

[4] = Drug distribution in BALB/C mouse xenografted with human HCT-15 cells assessed as increase in fluorescence intensity in tumor at 12 nmol at iv administration observed after 6 hr by IVIS imaging analysis; format: ADME, organism-based, Neoplasm; settings: in vivo
[5] = Drug distribution in BALB/C mouse xenografted with human HCT-15 cells by measuring fluorescence intensity ratio in tumor at 12 nmol at iv administration in presence of CYP1B1 inhibitor, ANF observed after 24 hrs by IVIS imaging analysis; format: ADME, organism-based, Neoplasm; settings: in vivo
[6] = Drug distribution in BALB/C mouse xenografted with human HCT-15 cells by measuring fluorescence intensity ratio in tumor at 12 nmol at iv administration observed after 24 hrs by IVIS imaging analysis; format: ADME, organism-based, Neoplasm; settings: in vivo
[7] = Drug distribution in BALB/C mouse xenografted with human HCT-15 cells assessed as increase in fluorescence intensity in tumor at 12 nmol at iv administration in presence of CYP1B1 inhibitor, ANF observed after 2 to 6 hrs by IVIS imaging analysis; format: ADME, organism-based, Neoplasm; settings: in vivo, time 2-6 hrs
[8] = Drug distribution in BALB/C mouse xenografted with human HCT-15 cells by measuring fluorescence intensity ratio in muscle tissue at 12 nmol at iv administration observed after 24 hrs by IVIS imaging analysis; format: ADME, organism-based; settings: in vivo
Cytochrome P450 1B1 [9] = target: T1, Cytochrome P450 1B1; test: Binding affinity to CYP1B1 in human HCT-15 cells assessed as increase in fluorescence signal at cytoplasm at 0.5 to 1 uM incubated for 1 hr by DAPI staining based confocal laser scanning microscopic analysis; format: ADME, cell-based; settings: hct-15, 1 h, dose 0.5-1 µM
[10] = Drug distribution in BALB/C mouse xenografted with human HCT-15 cells by measuring fluorescence intensity ratio in tumor at 12 nmol at iv administration in presence of CYP1B1 inhibitor, ANF observed after 6 hrs by IVIS imaging analysis; format: ADME, organism-based, Neoplasm; settings: in vivo
[11] = Drug distribution in BALB/C mouse xenografted with human HCT-15 cells by measuring fluorescence intensity ratio in tumor at 12 nmol at iv administration observed after 2 hrs by IVIS imaging analysis; format: ADME, organism-based, Neoplasm; settings: in vivo
[12] = Drug distribution in BALB/C mouse xenografted with human HCT-15 cells assessed as increase in fluorescence intensity in liver at 12 nmol at iv administration observed after 24 hrs by IVIS imaging analysis; format: ADME, organism-based; settings: in vivo
[13] = Drug distribution in BALB/C mouse xenografted with human HCT-15 cells assessed as increase in photoacoustic signal in tumor at 12 nmol at iv administration observed after 6 hrs by photoacoustic imaging analysis; format: ADME, organism-based, Neoplasm; settings: in vivo
[14] = Drug distribution in BALB/C mouse xenografted with human HCT-15 cells assessed as increase in fluorescence intensity in tumor at 12 nmol at iv administration observed after 2 hr by IVIS imaging analysis; format: ADME, organism-based, Neoplasm; settings: in vivo
[15] = Drug distribution in BALB/C mouse xenografted with human HCT-15 cells assessed as increase in photoacoustic signal in tumor at 12 nmol at iv administration observed after 24 hrs by photoacoustic imaging analysis; format: ADME, organism-based, Neoplasm; settings: in vivo
Cytochrome P450 1B1 [16] = target: T1, Cytochrome P450 1B1; test: Binding affinity to CYP1B1 in human HFF-1 cells assessed as increase in fluorescence signal at 0.5 to 1 uM incubated for 1 hr by DAPI staining based confocal laser scanning microscopic analysis; format: ADME, cell-based; settings: hff-1, 1 h, dose 0.5-1 µM
[17] = Drug distribution in BALB/C mouse xenografted with human HCT-15 cells by measuring fluorescence intensity ratio in tumor at 12 nmol at iv administration observed after 6 hrs by IVIS imaging analysis; format: ADME, organism-based, Neoplasm; settings: in vivo
[18] = Drug distribution in BALB/C mouse xenografted with human HCT-15 cells by measuring fluorescence intensity ratio in tumor at 12 nmol at iv administration in presence of CYP1B1 inhibitor, ANF observed after 4 hrs by IVIS imaging analysis; format: ADME, organism-based, Neoplasm; settings: in vivo
Cytochrome P450 1B1 [19] = target: T1, Cytochrome P450 1B1; test: Binding affinity to CYP1B1 in human HCT-15 cells assessed as increase in fluorescence signal at 0.5 to 1 uM incubated for 1 hr by DAPI staining based confocal laser scanning microscopic analysis; format: ADME, cell-based; settings: hct-15, 1 h, dose 0.5-1 µM
Cytochrome P450 1B1 [20] = target: T1, Cytochrome P450 1B1; test: Binding affinity to CYP1B1 in human HCT-15 cells assessed as increase in fluorescence signal at 0.5 to 1 uM incubated for 1 hr in presence of compound 14c by DAPI staining based confocal laser scanning microscopic analysis; format: ADME, cell-based; settings: hct-15, 1 h, dose 0.5-1 µM
[21] = Drug distribution in BALB/C mouse xenografted with human HCT-15 cells assessed as increase in photoacoustic signal in tumor at 12 nmol at iv administration observed after 2 hrs by photoacoustic imaging analysis; format: ADME, organism-based, Neoplasm; settings: in vivo
[22] = Drug distribution in BALB/C mouse xenografted with human HCT-15 cells by measuring fluorescence intensity ratio in muscle tissue at 12 nmol at iv administration in presence of CYP1B1 inhibitor, ANF observed after 24 hrs by IVIS imaging analysis; format: ADME, organism-based; settings: in vivo
[23] = Drug distribution in BALB/C mouse xenografted with human HCT-15 cells by measuring fluorescence intensity ratio in tumor at 12 nmol at iv administration in presence of CYP1B1 inhibitor, ANF observed after 2 hrs by IVIS imaging analysis; format: ADME, organism-based, Neoplasm; settings: in vivo
[24] = Drug distribution in BALB/C mouse xenografted with human HCT-15 cells by measuring fluorescence intensity ratio in tumor at 12 nmol at iv administration observed after 4 hrs by IVIS imaging analysis; format: ADME, organism-based, Neoplasm; settings: in vivo
Cytochrome P450 1B1 [25] = target: T1, Cytochrome P450 1B1; test: Binding affinity to CYP1B1 in human HCT-15 cells assessed as increase in fluorescence signal at nucleus at 0.5 to 1 uM incubated for 1 hr by DAPI staining based confocal laser scanning microscopic analysis; format: ADME, cell-based; settings: hct-15, 1 h, dose 0.5-1 µM

Compound: CCN1/C(=C/C=C/C=C/C2=[N+](CCCCCC(=O)NCCCCCCCCC(=O)Nc3cc(F)cc(-c4cc(=O)c5cc(OC)c6c(OC)ccc(OC)c6c5o4)c3)c3ccc4c(S(=O)(=O)[O-])cc(S(=O)(=O)O)cc4c3C2(C)C)C(C)(C)c2c1ccc1c(S(=O)(=O)O)cc(S(=O)(=O)O)cc21
- Activity (HFF-1): Non-Toxic
- Stability [1]: Stable
- viability at 10 µM (HCT-15): > 80%
- Kd (Cytochrome P450 1B1 [2]): 213 nM

Compound: COc1ccc(OC)c2c1c(OC)cc1c(=O)cc(-c3ccc(O)c(F)c3)oc12
- IC50 (Cytochrome P450 1B1 [3]): 113 nM

Compound: COc1ccc(OC)c2c1c(OC)cc1c(=O)cc(-c3cc(F)cc(OCCOCCOCCN)c3)oc12
- IC50 (Cytochrome P450 1A2): 1840 nM

Compound: COc1ccc(OC)c2c1c(OC)cc1c(=O)cc(-c3cc(F)cc(NC(=O)CCCCCCCCN)c3)oc12
- IC50 (Cytochrome P450 1A2): > 2000 nM

Compound: COc1ccc(OC)c2c1c(OC)cc1c(=O)cc(-c3cc(N)cc(F)c3)oc12
- IC50 (Cytochrome P450 1B1 [3]): 2.03 nM

Compound: COc1ccc(OC)c2c1c(OC)cc1c(=O)cc(-c3cc(F)cc(NC(=O)COCCOCCN)c3)oc12
- IC50 (Cytochrome P450 1A2): > 2000 nM

Compound: O=c1cc(-c2ccccc2)oc2c1ccc1ccccc12 [ALPHA-NAPHTHOFLAVONE]
- IC50 (Cytochrome P450 1A1): 37.8 nM

Compound: CCN1/C(=C/C=C/C=C/C2=[N+](CCCCCC(=O)NCCOCCOCCOCCOc3cc(F)cc(-c4cc(=O)c5cc(OC)c6c(OC)ccc(OC)c6c5o4)c3)c3ccc4c(S(=O)(=O)[O-])cc(S(=O)(=O)O)cc4c3C2(C)C)C(C)(C)c2c1ccc1c(S(=O)(=O)O)cc(S(=O)(=O)O)cc21
- Drug uptake [4]: Active
- Ratio [5]: 1.34
- Ratio [6]: 1.69
- Drug uptake [7]: Not Active
- Ratio [8]: 26.51
- Activity (HFF-1): Non-Toxic
- Activity (Cytochrome P450 1B1 [9]): Active
- Ratio [10]: 1.32
- Ratio [11]: 1.92
- Stability [1]: Stable
- Drug uptake [12]: Active
- viability at 10 µM (HCT-15): > 80%
- Drug uptake [13]: Active
- Drug uptake [14]: Active
- Drug uptake [15]: Not Active
- Activity (Cytochrome P450 1B1 [16]): Not Active
- Ratio [17]: 2.15
- Ratio [18]: 1.19
- Activity (Cytochrome P450 1B1 [19]): Active
- Activity (Cytochrome P450 1B1 [20]): Not Active
- Drug uptake [21]: Active
- Ratio [22]: 12.1
- Ratio [23]: 1.06
- Ratio [24]: 1.95
- Kd (Cytochrome P450 1B1 [2]): 93.7 nM
- Activity (Cytochrome P450 1B1 [25]): Active

Compound: COc1ccc(OC)c2c1c(OC)cc1c(=O)cc(-c3cc(F)cc(NC(=O)CCCCCCN)c3)oc12
- IC50 (Cytochrome P450 1A2): 1460 nM
